From US5852011A, “Benzimidazole derivatives” (Mitsui Chemicals, Inc., priority 1994, dated 1998)
Structures can show the parent of a compound that is named as a salt.

Assays:
mouse B16 melanoma cells = assay: In vitro inhibition of proliferation of tumored cells, mouse B16 melanoma (Test 2); format: cell-based; details: 3 days in 5% CO2 at 37° C., 96-well plate
Method: A description will next be made of antitumor activities of these compounds. Their antitumor activities were determined by measuring their in vitro inhibition of proliferation of tumored cells. Namely, mouse B16 melanoma cells were spread over a 96-well culture plate. One day later, each drug was applied. The melanoma cells were then incubated for 3 days in 5% CO2 at 37° C. Following the method reported in Cancer Res., 48, 589-601(1988), the concentration of the drug required to induce 50% inhibition on the proliferation was determined. As a comparative example, the results obtained from the application of distamycin are also shown.

P388 leukemia cells = assay: In vivo antitumor activity, P388 leukemia intraperitoneally transplanted to female CDF1 mice (Test 3); set-up: species or system mouse; ILS: unit not given here; details: intraperitoneal, one, five and nine days after transplantation; for ILS: 1 mg/kg; for Survived After 8 weeks/Tested Animals: concentration 3 (in parentheses)
Method: In vivo antitumor activities of these compounds were also studied. P388 leukemia cells (10^6 cells/mouse) were intraperitoneally transplanted to female CDF1 mice. One, five and nine days later, each compound was intraperitoneally administered (at 1, 3 or 10 mg/kg) to the mice. As a blank test, 5% glucose was intraperitoneally administered at 10 ml/kg to mice. Based on the group of the mice in the blank test as a control group, the effects of the individual drugs are shown in terms of ILS. The term "ILS" is represented by the following formula: [formula]
When test animals survived 8 weeks after the administration, the number of those survived was recorded without calculation of ILS.

| Compound | 50% Inhibition (mouse B16 melanoma cells) [µg/mL] | ILS (P388 leukemia cells) | Survived After 8 weeks/Tested Animals (P388 leukemia cells) |
| --- | --- | --- | --- |
| Cn1cc(NC(=O)Cc2ccc(N(CCCl)CCCl)cc2)cc1-c1nc2cc(C(=O)NCCC(=N)N)ccc2[nH]1 [Compound 2, 1H-2-[4-[2-[4-[N,N-Bis(2-chloroethyl)amino]phenyl]acetylamino]-1-methylpyrrol-2-yl]benzimidazole-5-[N-(2-amidinoethyl)]carboxamide hydrochloride] | 0.25 | 59 | 2/5 |
| COc1cc(C(=O)Nc2cc(-c3nc4cc(C(=O)NCCC(=N)N)ccc4[nH]3)n(C)c2)ccc1N(CCCl)CCCl [Compound 6, 1H-2-[4-[3-Methoxy-4-[N,N-bis(2-chloroethyl)amino]benzoylamino]-1-methylpyrrol-2-yl]benzimidazole-5-[N-(2-amidinoethyl)]carboxamide hydrochloride] | 0.02 | 94 | – |
| Cn1cc(NC(=O)COc2ccc(N(CCCl)CCCl)cc2)cc1-c1nc2cc(C(=O)NCCC(=N)N)ccc2[nH]1 [Compound 13, 1H-2-[4-[4-[N,N-Bis(2-chloroethyl)amino]phenoxyacetylamino]-1-methylpyrrol-2-yl]benzimidazole-5-[N-(2-amidinoethyl)]carboxamide hydrochloride] | 0.01 | 123 | 3/5 |
| Cn1cc(NC(=O)CC[S+](C)C)cc1-c1nc2cc(C(=O)Nc3ccc(N(CCCl)CCCl)c(C(F)(F)F)c3)ccc2[nH]1 [Compound 1077, 2-[N-[1-Methyl-2-[5-[N-[3-trifluoromethyl-4-[N,N-bis(2-chloroethyl)amino]phenyl]]carbamoyl]-1H-benzimidazol-2-yl]pyrrol-4-yl]carbamoylethyl-dimethylsulfonium chloride] | 0.29 | – | – |
| Cc1cc(NC(=O)c2ccc3[nH]c(-c4cc(NC(=O)CCCN(C)C)cn4C)nc3c2)ccc1N(CCCl)CCCl [Compound 1260, 1H-2-[1-Methyl-4-[4-(N,N-dimethylamino)butyrylamino]pyrrol-2-yl]benzimidazole-5-[N-[3-methyl-4-[N,N-bis(2-chloroethyl)amino]phenyl]]carboxamide dihydrochloride] | 3.1 | – | – |
| Cn1cc(NC(=O)c2ccc[nH]2)cc1-c1nc2cc(C(=O)Nc3ccc(N(CCCl)CCCl)cc3)ccc2[nH]1 [Compound 1480, 1H-2-[1-Methyl-4-(2-pyrrolcarboxamido)pyrrol-2-yl]benzimidazole-5-[N-[4-[N,N-bis(2-chloroethyl)amino]phenyl]]carboxamide hydrochloride] | 0.16 | – | – |
| Cn1cc(NC(=O)CCCN)cc1-c1nc2cc(C(=O)Nc3ccc(N(CCCl)CCCl)cc3)ccc2[nH]1 [Compound 1488, 1H-2-[4-(4-aminobuturylamino)-1-methylpyrrol-2-yl]benzimidazole-5-[N-[4-[N,N-bis(2-chloroethyl)amino]phenyl]]carboxamide] | 2.85 | – | – |
| CSCCC(=O)Nc1cc(-c2nc3cc(C(=O)Nc4ccc(N(CCCl)CCCl)cc4)ccc3[nH]2)n(C)c1 [Compound 1520, 1H-2-[1-Methyl-4-[3-(methylthio)propionylamino]pyrrol-2-yl]benzimidazole-5-[N-[4-[N,N-bis(2-chloroethyl)amino]phenyl]]carboxamide] | 0.33 | – | – |
| CSCCC(=O)Nc1cc(-c2nc3cc(C(=O)Nc4ccc(N(CCCl)CCCl)c(C)c4)ccc3[nH]2)n(C)c1 [Compound 1524, 1H-2-[1-Methyl-4-[3-(methylthio)propionylamino]pyrrol-2-yl]benzimidazole-5-[N-[3-methyl-4-[N,N-bis(2-chloroethyl)amino]phenyl]]carboxamide] | 0.6 | – | – |
| CSCCC(=O)Nc1cc(-c2nc3cc(C(=O)Nc4ccc(N(CCCl)CCCl)c(F)c4)ccc3[nH]2)n(C)c1 [Compound 1528, 1H-2-[1-Methyl-4-[3-(methylthio)propionylamino]pyrrol-2-yl]benzimidazole-5-[N-[3-fluoro-4-[N,N-bis(2-chloroethyl)amino]phenyl]]carboxamide] | 0.22 | – | – |
| Cn1cc(NC(=O)N2CCOCC2)cc1-c1nc2cc(C(=O)Nc3ccc(N(CCCl)CCCl)cc3)ccc2[nH]1 [Compound 1536, 1H-2-[1-Methyl-4-(4-morpholinecarbonyl)aminopyrrol-2-yl]benzimidazole-5-[N-[4-[N,N-bis(2-chloroethyl)amino]phenyl]]carboxamide] | 0.53 | – | – |
| Cn1cc(NC(=O)CN2CCN(Cc3ccccc3)CC2)cc1-c1nc2cc(C(=O)Nc3ccc(N(CCCl)CCCl)cc3)ccc2[nH]1 [Compound 1585, 1H-2-[1-Methyl-4-[(4-benzylpiperazinyl)acetylamino]pyrrol-2-yl]benzimidazole-5-[N-[4-[N,N-bis(2-chloroethyl)amino]phenyl]]carboxamide] | 0.1 | – | – |
| Cn1cc(NC(=O)CCn2ccnc2)cc1-c1nc2cc(C(=O)Nc3ccc(N(CCCl)CCCl)cc3)ccc2[nH]1 [Compound 1589, 1H-2-[1-Methyl-4-[[3-(imidazol-1-yl)propionyl]amino]pyrrol-2-yl]benzimidazole-5-[N-[4-[N,N-bis(2-chloroethyl)]amino]phenyl]carboxamide] | 0.41 | – | – |
| Cn1cc(NC(=O)c2ncc[nH]2)cc1-c1nc2cc(C(=O)Nc3ccc(N(CCCl)CCCl)cc3)ccc2[nH]1 [Compound 1590, 1H-2-[1-Methyl-4-[2-imidazolylcarboxamido)-pyrrol-2-yl]benzimidazole-5-[N-[4-[N,N-bis(2-chloroethyl)amino]phenyl]]carboxamide] | 0.53 | – | – |
| Cn1cc(NC(=O)CNC(=N)N)cc1-c1nc2cc(C(=O)NCCCC(=O)Nc3ccc(N(CCCl)CCCl)cc3)ccc2[nH]1 [Compound 1592, 1H-2-[4-(Guanidinoacetyl)amino-1-methylpyrrol-2-yl]benzimidazole-5-[N-[3-[N-[4-[N,N-bis(2-chloroethyl)amino]phenyl]carboxamido]propyl]]carboxamide hydrochloride] | 0.61 | – | – |
| N=C(N)NCC(=O)Nc1cc(-c2nc3cc(C(=O)Nc4ccc(N(CCCl)CCCl)cc4)ccc3[nH]2)cs1 [Compound 1617, 1H-2-[5-(Guanidinoacetyl)aminothiophen-3-yl]benzimidazole-5-[N-[4-[N,N-bis(2-chloroethyl)amino]phenyl]]carboxamide dihydrochloride] | 0.12 | – | – |
| CCN(CCCl)c1ccc(NC(=O)c2ccc3[nH]c(-c4cc(NC(=O)c5ccc(N(CC)CCCl)cc5)cn4C)nc3c2)cc1.Cl [Compound 2089, 1H-2-[1-Methyl-4-[4-[N-ethyl,N-(2-chloroethyl)amino]benzoylamino]pyrrol-2-yl]benzimidazole-5-[N-[4-[N-ethyl,N-(2-chloroethyl)amino]phenyl]]carboxamidehydrochloride] | 0.0057 | – | – |
